Source: BindingDB's records for PubMed 2989489 (Eli Lilly, 1985)
Several values for one entry are separate records, joined by “and”; a condition that tells them apart may be missing. Equal entries are not always repeated.

Target: Sigma non-opioid intracellular receptor 1 (Rattus norvegicus, UniProt Q9R0C9)
Sequence (Q9R0C9 whole entry): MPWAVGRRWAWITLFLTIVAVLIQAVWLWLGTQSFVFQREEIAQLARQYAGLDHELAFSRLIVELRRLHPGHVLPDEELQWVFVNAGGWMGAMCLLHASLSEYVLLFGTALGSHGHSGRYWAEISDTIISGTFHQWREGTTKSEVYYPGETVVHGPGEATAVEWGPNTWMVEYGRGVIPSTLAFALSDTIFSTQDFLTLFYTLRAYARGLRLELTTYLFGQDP

| Compound | Ki |
| --- | --- |
| c1ccc(C2(c3ccccc3)OCC(C3CCCCN3)O2)cc1 (racemic) | 23 nM and 141 nM |
| c1ccc(C2(N3CCCCC3)CCCCC2)cc1 | 29 nM and 135 nM |
| C[C@@H]1[C@@H]2Cc3ccc(O)cc3[C@@]1(C)CCN2CC1CC1 [(SSS)-12-Cyclopropylmethyl-13-methyl-12-aza-tricyclo[9.1.1.0*3,8*]trideca-3(8),4,6-trien-6-ol(cyclazocine)] | 69 nM and 125 nM |
| Oc1noc2c1CCNC2 [CAS_64603-91-4] | > 10000 nM |
| CN[C@@]1(c2ccccc2Cl)CCCCC1=O [2-(2-Chloro-phenyl)-2-methylamino-cyclohexanone(Ketamine)] | 440 nM and 1450 nM |
| C=CCN1CC[C@]2(C)c3cc(O)ccc3C[C@@H]1[C@@H]2C [SKF 10,047 (-)] | 117 nM and 134 nM and 229 nM and 571 nM |
| CCC1(c2ccccc2)OCC([C@H]2CCCCN2)O1 (stereo partly specified) | 82 nM and 152 nM |
| CC1(C2(C)COC(c3ccccc3)(c3ccccc3)O2)CCCCN1 (stereo unspecified) [CAS_4792-18-1] | 5500 nM and 1900 nM |
| CCC12CCN(CC3(O)CC3)C(Cc3ccc(O)cc31)C2(C)C (stereo unspecified) | 229 nM |
| Cc1cccc(C2(N3CCCCC3)CCCCC2)c1 [PCP,m-OH] | 8 nM and 77 nM |
| Oc1ccc2c(c1)C13CCCCC1C(C2)N(CC1CC1)CC3 (stereo unspecified) [17-(cyclopropylmethyl)-17-azatetracyclo[7.5.3.0^{1,10}.0^{2,7}]heptadeca-2(7),3,5-trien-4-ol] | 226 nM and 287 nM |
